According to paper PMC11855827, “High-Throughput Screening of Five Compound Libraries for Anthelmintic Activity and Toxicity Leads to the Discovery of Two Flavonoid Compounds” (International Journal of Molecular Sciences, 2025):
Like-named read-outs stand apart in the source and are kept apart here.

Tested on: C. elegans
[1] = Table S2, C. elegans SS assay, 110 μM, 0 h, averages of 4 data points
[2] = Table S2, C. elegans SS assay, 110 μM, 24 h, averages of 4 data points

SMILES	Percentage of motility inhibition 0 h [1]	Percentage of motility inhibition 24 h [2]	Percentage of motility inhibition 0 h (110 µM)	Percentage of motility inhibition 24 h (110 µM)
CC1=C2[C@@H](OC1=O)[C@H](O)[C@]13[C@H]4C[C@@H](C(C)(C)C)[C@]15[C@@H](OC(=O)[C@@H]5O)O[C@@]23C(=O)O4 [Ginkgolide K]	0%	2%		
CC(C)=CCC[C@](C)(O[C@@H]1O[C@H](CO)[C@@H](O)[C@H](O)[C@H]1O)[C@H]1CC[C@]2(C)[C@@H]1[C@H](O)C[C@@H]1[C@@]3(C)CC[C@H](O)C(C)(C)[C@@H]3CC[C@]12C [Ginsenoside C-K]	4%	22%		
CC(C)=CCC[C@](C)(O[C@@H]1O[C@H](CO[C@@H]2OC[C@H](O[C@@H]3OC[C@@H](O)[C@H](O)[C@H]3O)[C@H](O)[C@H]2O)[C@@H](O)[C@H](O)[C@H]1O)[C@H]1CC[C@]2(C)[C@@H]1[C@H](O)C[C@@H]1[C@@]3(C)CC[C@H](O[C@@H]4O[C@H](CO)[C@@H](O)[C@H](O)[C@H]4O[C@@H]4O[C@H](CO)[C@@H](O)[C@H](O)[C@H]4O)C(C)(C)[C@@H]3CC[C@]12C [Ginsenoside Ra1]	0%	0%		
C=C(CCC=C(C)C)[C@H]1CC[C@]2(C)[C@@H]1[C@H](O)C[C@@H]1[C@@]3(C)CC[C@H](O)C(C)(C)[C@@H]3[C@@H](O[C@@H]3O[C@H](CO)[C@@H](O)[C@H](O)[C@H]3O[C@@H]3O[C@@H](C)[C@H](O)[C@@H](O)[C@H]3O)C[C@]12C [Ginsenoside Rg6]	1%	4%		
C=C(CCC=C(C)C)[C@H]1CC[C@]2(C)[C@@H]1[C@H](O)C[C@@H]1[C@@]3(C)CC[C@H](O[C@@H]4O[C@H](CO)[C@@H](O)[C@H](O)[C@H]4O[C@@H]4O[C@H](CO)[C@@H](O)[C@H](O)[C@H]4O)C(C)(C)[C@@H]3CC[C@]12C [Ginsenoside Rk1]	4%	0%		
C=C(CCC=C(C)C)[C@H]1CC[C@]2(C)[C@@H]1[C@H](O)C[C@@H]1[C@@]3(C)CC[C@H](O)C(C)(C)[C@@H]3[C@@H](O[C@@H]3O[C@H](CO)[C@@H](O)[C@H](O)[C@H]3O)C[C@]12C [Ginsenoside Rk3]	0%	19%		
CC1(C)CC[C@]2(C(=O)O[C@@H]3O[C@H](CO)[C@@H](O)[C@H](O)[C@H]3O)CC[C@]3(C)C(=CC[C@@H]4[C@@]5(C)CC[C@H](O[C@@H]6O[C@H](C(=O)O)[C@@H](O)[C@H](O)[C@H]6O[C@@H]6O[C@H](CO)[C@@H](O)[C@H](O)[C@H]6O)C(C)(C)[C@@H]5CC[C@]43C)[C@@H]2C1 [Ginsenoside Ro]	1%	0%		
O=C([O-])[C@H](O)[C@@H](O)[C@H](O)[C@H](O)CO.[Na+] [Gluconate (sodium)]	15%	3%		
C[S+]([O-])CCCC/C(=N\OS(=O)(=O)O)S[C@@H]1O[C@H](CO)[C@@H](O)[C@H](O)[C@H]1O (stereo partly drawn) [Glucoraphanin]	12%	0%		
NCC(=O)O [Glycine]			32%	13%
COc1cc2c(=O)c(-c3ccc(O)cc3)coc2cc1O[C@@H]1O[C@H](CO)[C@@H](O)[C@H](O)[C@H]1O [Glycitin]	30%	4%		
C[C@H](CCC(=O)NCC(=O)[O-])[C@H]1CC[C@H]2[C@@H]3[C@H](O)C[C@@H]4C[C@H](O)CC[C@]4(C)[C@H]3C[C@H](O)[C@]12C.[Na+] [Glycocholic acid (sodium)]	0%	0%		
O=C(O)CO [Glycolic acid]	5%	6%		
C[C@H](CCC(=O)NCC(=O)O)[C@H]1CC[C@H]2[C@@H]3CC[C@@H]4C[C@H](OS(=O)(=O)O)CC[C@]4(C)[C@H]3CC[C@]12C [Glycolithocholic acid 3-sulfate]	13%	33%		
CC1(C)[C@@H](O[C@@H]2O[C@H](C(=O)O)[C@@H](O)[C@H](O)[C@H]2O)CC[C@]2(C)[C@H]3C(=O)C=C4[C@@H]5C[C@@](C)(C(=O)O)CC[C@]5(C)CC[C@@]4(C)[C@]3(C)CC[C@@H]12 [Glycyrrhetic acid 3-O-β-D-glucuronide]	2%	22%		
CC(=O)O.Cc1cc2c(C(C)C)c(O)c(O)c(C=O)c2c(O)c1-c1c(C)cc2c(C(C)C)c(O)c(O)c(C=O)c2c1O [Gossypol (acetic acid)]	0%	7%		
COc1cc2c(cc1O)CC[n+]1cc3c4c(ccc3cc1-2)OCO4 [Groenlandicine]	0%	0%		

SMILES	Percentage of motility inhibition 0 h [1]	Percentage of motility inhibition 24 h [2]	Percentage of motility inhibition 0 h (110 µM)	Percentage of motility inhibition 24 h (110 µM)
O=c1c(O[C@@H]2OC[C@H](O)[C@H](O)[C@H]2O)c(-c2ccc(O)c(O)c2)oc2cc(O)cc(O)c12 [Guaijaverin]	0%	25%		
C=C1CC23CC4[C@@H]5[C@@]6(C)C[C@H](OC(C)=O)C[C@]57C(N4C6)[C@@]2(O)C(OC(C)=O)[C@H]1[C@@H](O)[C@H]37 (stereo partly drawn) [Guanfu base A]	0%	0%		
COC(=O)C1=CCCNC1.Cl [Guvacoline (hydrochloride)]	0%	0%		
CC1(C)C[C@H]2C3=CC[C@@H]4[C@@]5(C)CC[C@H](O)[C@@](C)(CO)[C@@H]5CC[C@@]4(C)[C@]3(C)C[C@H](O)[C@@]2(CO)[C@@H](O)[C@@H]1O [Gymnemagenin]	0%	52%		
C/C=C(\C)C(=O)O[C@H]1[C@H](O)[C@]2(COC(C)=O)[C@@H](O)C[C@]3(C)C(=CC[C@@H]4[C@@]5(C)CC[C@H](O[C@@H]6O[C@H](C(=O)O)[C@@H](O)[C@H](O)[C@H]6O)[C@@](C)(CO)[C@@H]5CC[C@]43C)[C@@H]2CC1(C)C [Gymnemic acid I]	20%	0%		
CC(C)=CC1CC(O)(C2CCC3(C)C2CCC2C4(C=O)CCC(OC5OCC(O)C(OC6OCC(O)C(O)C6O)C5OC5OC(C)C(O)C(O)C5O)C(C)(C)C4CCC23C)C(O)O1 (stereo not drawn) [Gypenoside A]	0%	0%		
CC(C)=CCC[C@@](C)(O)[C@H]1CC[C@]2(C)[C@@H]1[C@H](O)C[C@@H]1[C@@]3(C)C[C@@H](O)[C@H](O[C@@H]4O[C@H](CO)[C@@H](O)[C@H](O)[C@H]4O[C@@H]4O[C@H](CO)[C@@H](O)[C@H](O)[C@H]4O)C(C)(C)[C@@H]3CC[C@]12C [Gypenoside LI]	0%	0%		
CC(C)=CCC[C@](C)(O)[C@H]1CC[C@]2(C)[C@@H]1[C@H](O)C[C@@H]1[C@@]3(C)C[C@@H](O)[C@H](O[C@@H]4O[C@H](CO)[C@@H](O)[C@H](O)[C@H]4O[C@@H]4O[C@H](CO)[C@@H](O)[C@H](O)[C@H]4O)C(C)(C)[C@@H]3CC[C@]12C [Gypenoside L]	22%	15%		
CC(C)=CCC[C@](C)(O[C@@H]1O[C@H](CO[C@@H]2OC[C@@H](O)[C@H](O)[C@H]2O)[C@@H](O)[C@H](O)[C@H]1O)[C@H]1CC[C@]2(C)[C@@H]1[C@H](O)C[C@@H]1[C@@]3(C)CC[C@H](O)C(C)(C)[C@@H]3CC[C@]12C [Gypenoside XIII]	7%	13%		
CC(C)=CCC[C@@](O)(CO[C@@H]1O[C@H](CO)[C@@H](O)[C@H](O)[C@H]1O)[C@H]1CC[C@]2(C)[C@@H]1CC[C@@H]1[C@@]3(C=O)CC[C@H](O[C@@H]4OC[C@H](O)[C@H](O[C@@H]5OC[C@@H](O)[C@H](O)[C@H]5O)[C@H]4O[C@@H]4O[C@@H](C)[C@H](O)[C@@H](O)[C@H]4O)C(C)(C)[C@@H]3CC[C@]12C [Gypenoside XLIX]	3%	6%		
CC(C)=CCCC(C)(OC1OC(CO)C(O)C(O)C1O)C1CCC2(C)C1C(O)CC1C3(C)CC(O)C(OC4OC(CO)C(O)C(O)C4OC4OC(CO)C(O)C(O)C4O)C(C)(C)C3CCC12C (stereo not drawn) [Gypenoside XLVI]	1%	2%		
CN[C@H]1[C@H](O)[C@H](O[C@@H]2[C@@H](O)[C@H](O[C@H]3O[C@H](C(C)O)[C@@H](O)[C@H](O)[C@H]3N)[C@@H](N)C[C@H]2N)OC[C@@]1(C)O.O=S(=O)(O)O.O=S(=O)(O)O (stereo partly drawn) [G‐418 (disulfate)]	26%	11%		
CCCC(C(=O)O)c1c(C)nc2ccc(Cl)cc2c1-c1ccccc1 (stereo not drawn) [HIV‐1 integrase inhibitor 2]	14%	13%		
[N-]=[N+]=NCc1cccc(/C(O)=C/C(=O)C(=O)O)c1 [HIV‐1 integrase inhibitor]	22%	10%		
Br.O=C(CC1NCCCC1O)Cn1cnc2cc(Br)c(Cl)cc2c1=O (stereo not drawn) [Halofuginone (hydrobromide)]	4%	0%		
CC1=NCCc2c1[nH]c1cc(O)ccc21.Cl [Harmalol (hydrochloride)]	17%	2%		
